Data reported in US20190175560A1, “MEBENDAZOLE CANCER THERAPIES AND METHODS OF USE” (Shepherd Therapeutics, Inc., priority 2017, published 2019).
pIC50: −log10 of the molar value.

Key:
[1] = test system: PC12 pheochromocytoma/paraganglioma cell line; test: Synergy of MBZ or HA-PLGA-MBZ with chemotherapeutic agents (Chou-Talalay CI, Cell Titer Glo); format: cell-based; conditions: PC12 + Vincristine
Protocol: (§6) For in vitro experiments, cells were plated in triplicate and treated with a range of concentrations of MBZ and relevant chemotherapeutic agents in a complete Latin square.
(§7) Cells were plated in triplicate and treated with a range of 5 concentrations of MBZ in combination with 5 concentrations of chemotherapeutic agents in a complete Latin square. Following a 72 hour incubation, cell viability was determined using Cell Titer Glo.
(§8) In table 22 below, cells were plated in triplicate and treated with a range of 5 concentrations of MBZ or HA-PLGA-MBZ nanoparticles containing a molar equivalent of MBZ, and 5 concentrations of relevant chemotherapeutic agents in a complete Latin square. Combination indexes (CI) were determined based on the method described by Chou-Talalay with a CI value less than 0.9 indicating synergy. […] Numbers in parentheses represent the range of synergistic CI values for each cell line and drug combination.

ACCX5M1 PDX tumors = test: ACC patient-derived xenograft (PDX) model, daily oral MBZ; format: in vivo, mice; conditions: 50 or 200 mg/kg daily oral
Protocol: (§1) The effectiveness of mebendazole can be assayed in vivo using a patient derived xenograft mouse model. In patient derived xenograft mice, cancerous cells isolated from a cancer patient are implanted into an immunodeficient mouse, and allowed to form tumors. The mice are then administered mebendazole, and the effect on tumor size and mouse viability is assayed. As xenograft cancers can be implanted from a variety of patient sources, the effectiveness of mebendazole treatment on multiple cancers can be assayed in this manner. Human cancer cell lines such as those tested in vitro can similarly be used in mouse xenograft tumor models.
(§2) Despite a deepening understanding of the molecular events that lead to sustained tumor growth, there are currently no approved therapies for ACC. Identification of therapies for ACC has been hampered by the lack of ACC cell lines and transgenic mouse models. To circumvent these issues, the activity of MBZ was tested in several ACC patient-derived xenograft (PDX) models. Athymic nude mice were implanted subcutaneously with PDX tumors and treatment was initiated when tumors reached a size of 125-300 mm^3. Mice were randomized into three treatment groups to receive daily treatment with vehicle or MBZ at either 50 or 200 mg/kg for the duration of the study. Tumor size was measured twice weekly.

ACCX6 PDX tumors = test: as above; format: in vivo, mice; conditions: for median survival: vehicle 42 days
Protocol: as §1, §2

ACCX9 PDX tumors = test: as above; format: in vivo, mice; conditions: for median survival: vehicle 29.5 days
Protocol: as §1, §2

[2] = test system: gastric cancer primary cells isolated from patient-derived xenograft model GA3155; test: Ex vivo 3D assay, cell viability (Cell Titer Glo); format: cell-based; conditions: 168 h, 3D culture, seven days
Protocol: (§3) To evaluate the efficacy of MBZ in an additional model system, an ex vivo 3D assay using gastric cancer primary cells isolated from two patient-derived xenograft models (A. GA0033 and B. GA3155) was performed. Cells were seeded in 3D cultures and treated for seven days with MBZ at nine different doses in triplicate. Cell viability was determined using Cell Titer Glo. An IC50 was established using the PRISM software.

[3] = test system: gastric cancer primary cells isolated from patient-derived xenograft model GA0033; test: Ex vivo 3D assay, cell viability (Cell Titer Glo); format: cell-based; conditions: 168 h, 3D culture, seven days
Protocol: as §3

NCI-H295R cells = test: MBZ vs HA-PLGA-MBZ cell viability IC50 (Cell Titer Glo); format: cell-based; conditions: Homo sapiens, 72 hour incubation
Excerpt: (§4) An IC50 for each treatment was established using the PRISM software.

HCT-116 cells = test: as above; format: cell-based; conditions: Homo sapiens, 72 hour incubation
Excerpt: as §4

SW-1271 cells = test: as above; format: cell-based; conditions: SW1271, 72 hour incubation
Excerpt: as §4

[4] = Tolerability of daily oral MBZ dosing in ACC PDX mice; format: in vivo; conditions: athymic nude mice with ACC PDX tumors; 50 or 200 mg/kg daily
Protocol: as §2

[5] = test system: rare cancer tumor cell lines including neuroblastoma, rhabdomyosarcoma and Ewing sarcoma; test: MBZ cell viability IC50 across rare cancer tumor cell lines; format: cell-based; conditions: several rare cancer tumor cell lines; 72 hours; read-out: IC50s (range over cell lines)
Protocol: The effect of mebendazole administration on cell lines derived from exemplary cancers was tested. One approach to determining the effectiveness of mebendazole in the treatment of cancer comprises in vitro testing. In this approach, cancer cell lines representative of the cancers of the disclosure are cultured in vitro according to standard techniques (see, for example, Human Cell Culture Protocols, Third Edition, […] R. D. Hughes, Editors, Humana Press, 2012), and increasing concentrations of mebendazole are administered to determine the IC50 value. As used herein, the term “IC50 value” refers to the concentration of a compound (for example mebendazole) wherein the response to that compound (such as inhibited cellular viability) is reduced by half. The IC50 is thus a measure of the effectiveness of a compound in inhibiting a biological process. […] Based on this biology, several rare cancer tumor cell lines including neuroblastoma, rhabdomyosarcoma and Ewing sarcoma were analyzed for sensitivity to MBZ treatment in vitro. […] In all cases, including those described below, the viable cells were determined using the CellTiter Glo® kit and an IC50 curve was generated using the PRISM software.

[6] = test system: CHP-212 neuroblastoma cell line; test: MBZ cell viability IC50 (CellTiter Glo); format: cell-based; conditions: Homo sapiens, 72 hours
Protocol: (§5) The effect of mebendazole administration on cell lines derived from exemplary cancers was tested. One approach to determining the effectiveness of mebendazole in the treatment of cancer comprises in vitro testing. In this approach, cancer cell lines representative of the cancers of the disclosure are cultured in vitro according to standard techniques (see, for example, Human Cell Culture Protocols, Third Edition, […] R. D. Hughes, Editors, Humana Press, 2012), and increasing concentrations of mebendazole are administered to determine the IC50 value. As used herein, the term “IC50 value” refers to the concentration of a compound (for example mebendazole) wherein the response to that compound (such as inhibited cellular viability) is reduced by half. The IC50 is thus a measure of the effectiveness of a compound in inhibiting a biological process. […] Based on this biology, several rare cancer tumor cell lines including neuroblastoma, rhabdomyosarcoma and Ewing sarcoma were analyzed for sensitivity to MBZ treatment in vitro. […] In all cases, including those described below, the viable cells were determined using the CellTiter Glo® kit and an IC50 curve was generated using the PRISM software. […] The neuroblastoma cell lines IMR-32, CHP-212, and SK-N-AS were treated with ten serial dilutions of mebendazole for 72 hours.

[7] = test system: IMR-32 neuroblastoma cell line; test: MBZ cell viability IC50 (CellTiter Glo); format: cell-based; conditions: Homo sapiens, 72 hours
Protocol: as §5

[8] = test system: SK-N-AS neuroblastoma cell line; test: MBZ cell viability IC50 (CellTiter Glo); format: cell-based; conditions: Homo sapiens, 72 hours
Protocol: as §5

[9] = test system: multiple rare cancer tumor cell lines; test: MBZ alone, cell viability IC50 in rare cancer tumor cell lines (Example 3); format: cell-based; conditions: read-out: IC50s (range over cell lines)
Protocol: The FDA-approved anti-helminthic drug mebendazole (MBZ) has been reported to affect several biological pathways involved in tumor growth and metastasis. Based on this activity, multiple rare cancer tumor cell lines including, but not limited to, neuroblastoma, carcinoid tumors, esophageal adenocarcinoma, gastrointestinal stromal tumors, leiomyosarcoma, pheochromocytoma, and mesothelioma were analyzed for their susceptibility to MBZ treatment alone or in combination with standard chemotherapeutic agents in vitro.

[10] = test system: CHP-212 neuroblastoma cells; test: Synergy of MBZ or HA-PLGA-MBZ with chemotherapeutic agents (Chou-Talalay CI, Cell Titer Glo); format: cell-based; conditions: CHP-212 + 4-HC
Protocol: as §6, §7, §8

[11] = test system: SNU16 gastric carcinoma cells; test: as above; format: cell-based; conditions: SNU16 + 5-FU
Protocol: as §6, §7, §8

[12] = both the 50 and 200 mg/kg dose levels

SMILES: COC(=O)Nc1nc2ccc(C(=O)c3ccccc3)cc2[nH]1 [MBZ, methyl N-(6-benzoyl-1H-benzimidazol-2-yl)carbamate]
- range of synergistic CI values [1]: Yes- (0.274-0.870)
- tumor growth (ACCX5M1 PDX tumors): did not inhibit tumor growth
- median survival (ACCX6 PDX tumors; 50 mg/kg daily oral): 95.5 days
- median survival (ACCX6 PDX tumors; 200 mg/kg daily oral): 64.5 days
- tumor growth compared to vehicle (ACCX6 PDX tumors; [12]): Inhibition of tumor growth
- tumor volume (ACCX6 PDX tumors; [12]): decrease in tumor volume
- median survival (ACCX9 PDX tumors; 50 mg/kg daily oral, not statistically significant): 33 days
- tumor volume (ACCX9 PDX tumors; 200 mg/kg): decrease in tumor volume
- median survival (ACCX9 PDX tumors; 200 mg/kg daily oral): 38 days
- anti-tumor activity (ACCX9 PDX tumors; highest dose of 200 mg/kg): statistically significant anti-tumor activity
- pIC50 [2]: 6.12
- pIC50 [3]: 6.13
- pIC50 (NCI-H295R cells): 6.48
- pIC50 (HCT-116 cells): 6.49
- pIC50 (SW-1271 cells): < 4.30
- tolerability of daily oral dosing [4]: well tolerated with no overt toxicities
- pIC50 [5]: 6.00 to 7.30
- pIC50 [6]: 6.89
- pIC50 [7]: 7.30
- pIC50 [8]: 6.17
- pIC50 [9]: 5.66 to 7.05
- range of synergistic CI values [10]: 0.569-0.860
- range of synergistic CI values [11]: 0.223-0.837
